Data: publication PMC10223552 (Pharmaceuticals, 2023)
Where two headings read alike, the source gives them in different places.

What was measured:
hH3R = biological target: T1, hH3R (Homo sapiens, UniProt Q9Y5N1); experiment: biochemical; format: binding
T1 construct: expressed in transfected cells
Procedure: All newly synthesized compounds were evaluated as H3R antagonists/inverse agonists on the guinea pig ileum (gpH3R), stimulated electrically to induce contractions. The distinct affinity profile and species-dependent pharmacology of H3R ligands are known. […] Therefore, to compare species differences, all newly synthesized compounds were subjected to radioligand displacement assay in membrane fractions of HEK-293 cells stably expressing hH3R. […] Ex vivo assay for histamine H3R and H1R antagonists were measured on the isolated guinea pig ileum stimulated to contractions by histamine. The pA2-values were calculated according to Arunlakshana and Schild. The radioligand-displacement binding assay was performed in membrane fractions of HEK-293 cells stably expressing hH3R. Cell cultivation and membrane preparation was performed according to Kottke et al.. The Ki values were calculated from the IC50 values using the Cheng–Prusoff equation [37]. The statistical calculations were performed on –log(Ki). […] The inhibitory activities of novel ADS compounds were assessed in spectrophotometric Ellman’s assay using AChE from electric eel (eeAChE) and BuChE from horse serum (eqBuChE).
3.3 hH3R radioligand displacement binding assay.
The radioligand displacement binding assay was performed in membrane fractions of HEK-293 cells stably expressing hH3R. Cell cultivation and membrane preparation was performed according to Kottke et al. [T. Kottke, […]
radioligand displacement assay, radioactively labeled [3H]Nα-methylhistamine was used at a final concentration […]
The total assay volume was set to 200 µL. The compounds were tested in several appropriate concentrations between 100 µM and 0.1 nM. Pipetting was partly done by Freedom Evo® (Tecan).
The membrane fraction (20 […]
µg/well), test compounds and radiolabeled ligand were incubated for 90 minutes at 25 °C while shaking. The bound radioligand was separated from the free radioligand by filtration through GF/B filters pre-treated with 0.3 % (m/v) polyethyleneimine using a cell harvester. Radioactivity was determined by liquid scintillation counting using a MicroBeta® Trilux (Perkin Elmer). The data was obtained in duplicates in at least three independent experiments. Non-specific binding was subtracted from the raw data to calculate specific-binding values. The evaluation was performed with GraphPad Prism 6.1 (San Diego, CA, USA) using non-linear regression (one-site competition with a logarithmic scale). The Ki values were calculated from the IC50 values using the Cheng-Prusoff […]
equation. [C. […] The statistical calculations […]
were performed on –log(Ki).

gpH3R = biological target: T2, gpH3R (Cavia porcellus, UniProt Q9JI35); experiment: Ex vivo assay for histamine H3R antagonists on electrically stimulated guinea pig ileum
T2 construct: from tissue; host or cells: isolated distal ileum of male guinea pigs
Procedure: All newly synthesized compounds were evaluated as H3R antagonists/inverse agonists on the guinea pig ileum (gpH3R), stimulated electrically to induce contractions. The distinct affinity profile and species-dependent pharmacology of H3R ligands are known. […] Therefore, to compare species differences, all newly synthesized compounds were subjected to radioligand displacement assay in membrane fractions of HEK-293 cells stably expressing hH3R.
(§1) Ex vivo assay for histamine H3R and H1R antagonists were measured on the isolated guinea pig ileum stimulated to contractions by histamine. The pA2-values were calculated according to Arunlakshana and Schild. The radioligand-displacement binding assay was performed in membrane fractions of HEK-293 cells stably expressing hH3R. Cell cultivation and membrane preparation was performed according to Kottke et al.. The Ki values were calculated from the IC50 values using the Cheng–Prusoff equation [37]. The statistical calculations were performed on –log(Ki). […] The inhibitory activities of novel ADS compounds were assessed in spectrophotometric Ellman’s assay using AChE from electric eel (eeAChE) and BuChE from horse serum (eqBuChE).
3. Pharmacological assay results.
3.1. Ex vivo assay for histamine H3R receptor antagonists on guinea pig ileum.
Male guinea pigs, weighing 300-400 g were euthanized by a blow to the neck. Following this, a 20-30 cm length of the distal ileum, apart from the terminal 5 cm was rapidly removed and placed in phosphate buffer at room […]
indomethacin (Sigma-Aldrich, St. Louis, MO, USA) (1·10-6 mol/L). The intraluminal content was rinsed and the isolated intestine was cut into 1.5-2 cm segments. The preparations were mounted between two platinum electrodes […]
load of 1.0 g (Hugo Sachs Hebel-Messvorsatz (Tl-2)/HF-modem; Hugo Sachs Elektronik, Hugstetten, Germany) connected to a pen recorder (Kipp & Zonen BD41, Delft, Holland). During an equilibration period of 60 min, the Krebs buffer was changed every 10 min. The preparations were then continuously stimulated at 15-20 V at a frequency of 0.1 Hz for a duration of 0.5 ms, with rectangular-wave electrical pulses (Grass Stimulator S-88; Grass Instruments Co., Quincy, Massachusetts, USA). […] Five minutes […]
before (R)-(−)-α-methylhistamine (RAMH) (Toronto Research Chemicals Inc., North York, Canada), […]
added. The first cumulative concentration-response curve was determined to RAMH (10 nM – 10 mM) at an […]
The second to fourth curve was measured against increasing antagonist concentration (incubation time 20 min). The pA2-values were calculated according to Arunlakshana and Schild. [Br J Pharmacol Chemother. […] Statistical analysis was carried out with the Students’ t-test. In all tests, a p<0.05 was considered statistically significant. The pA2 values were compared with the affinity of thioperamide (Sigma-Aldrich, St. Louis, MO, USA).

gpH1R = biological target: T3, gpH1R (Cavia porcellus, UniProt P31389); experiment: Ex vivo assay for histamine H1R antagonists on guinea pig ileum stimulated by histamine (+atropine); details: gpH1R +Atropine pA2 ± sem, isolated guinea pig ileum, vs histamine, 0.05 µM atropine
T3 construct: from tissue; host or cells: isolated distal ileum of male guinea pigs
Procedure: A second histamine receptor located in the guinea pig ileum is H1R. The antagonistic effect at H1R was measured on the isolated guinea pig ileum stimulated to contractions by histamine. To eliminate the impact of muscarinic receptors located on the tested tissue, 0.05 µM of atropine was added to the Krebs buffer.
as §1
3.2 Ex vivo assay for histamine H1R receptor antagonists on guinea pig ileum.
Male guinea pigs, weighing 300-400 g were euthanized by a blow to the neck. A 20-30 cm length of the distal ileum, apart from the terminal 5 cm was rapidly removed and placed in phosphate buffer at room temperature (pH […]
Aldrich, St. Louis, MO, USA) (1·10-6 mol/L). The intraluminal content was rinsed and the isolated intestine was cut into 1.5-2 cm segments. The preparations were mounted isotonically in a 20 mL organ bath filled with Krebs […]
a constant load of 0.5 g (Hugo Sachs Hebel-Messvorsatz (Tl-2)/HF-modem; Hugo Sachs Elektronik, Hugstetten, Germany) connected to a pen recorder (Kipp & Zonen BD41, Delft, Holland). During an equilibration period of 40 min, the Krebs buffer was changed every 10 min. The first cumulative concentration-response curve was determined to histamine (Sigma-Aldrich, St. Louis, MO, USA) (10 nM - 10 mM) at increasing concentration spaced by three or 3.3-fold. The second to the fourth (or fifth) curve was measured in the presence of an increasing concentration of antagonist (incubation time 10 min). The pA2-values were calculated according to Arunlakshana and Schild. [Br J Pharmacol Chemother. […] Statistical analysis was carried out with the Students’ t-test. In all tests, a p<0.05 was considered statistically significant. The pA2 values were compared with the affinity

eeAChE = biological target: T4, eeAChE (Electrophorus electricus, UniProt O42275); experiment: biochemical; design: species or system electric eel; details: for inhibition at 10 µM: read-out: eeAChE % inh. (10 µM) ± SD
T4 construct: purchased Sigma–Aldrich (Steinheim, Germany)

eqBuChE = eqBuChE (Equus caballus, UniProt P81908); experiment: biochemical; details: for inhibition at 10 µM: read-out: eqBuChE % inh. (10 µM) ± SD; for IC50: read-out: eqBuChE IC50 ± sem
[1] = mean ± sem, at least three independent experiments, read-out: hH3R -log(Ki) ± sem (converted)
[2] = hH3R -log(Ki) ± sem, mean ± sem, at least three independent experiments
[3] = isolated guinea pig ileum, vs RAMH, read-out: gpH3R pA2 ± sem (converted)

T1 sequence (Q9Y5N1 whole entry): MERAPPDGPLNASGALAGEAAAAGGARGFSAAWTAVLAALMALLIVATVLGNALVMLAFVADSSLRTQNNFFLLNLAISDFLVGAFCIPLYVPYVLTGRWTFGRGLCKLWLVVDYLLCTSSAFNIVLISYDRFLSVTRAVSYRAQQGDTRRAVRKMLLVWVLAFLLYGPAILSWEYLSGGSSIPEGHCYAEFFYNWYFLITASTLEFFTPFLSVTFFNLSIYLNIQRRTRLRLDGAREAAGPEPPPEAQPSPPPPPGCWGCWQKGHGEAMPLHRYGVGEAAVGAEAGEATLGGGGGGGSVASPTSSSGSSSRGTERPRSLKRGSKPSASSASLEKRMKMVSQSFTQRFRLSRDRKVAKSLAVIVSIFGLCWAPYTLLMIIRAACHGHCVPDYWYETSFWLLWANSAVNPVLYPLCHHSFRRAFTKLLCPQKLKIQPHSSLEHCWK
T4 sequence (O42275 24-633): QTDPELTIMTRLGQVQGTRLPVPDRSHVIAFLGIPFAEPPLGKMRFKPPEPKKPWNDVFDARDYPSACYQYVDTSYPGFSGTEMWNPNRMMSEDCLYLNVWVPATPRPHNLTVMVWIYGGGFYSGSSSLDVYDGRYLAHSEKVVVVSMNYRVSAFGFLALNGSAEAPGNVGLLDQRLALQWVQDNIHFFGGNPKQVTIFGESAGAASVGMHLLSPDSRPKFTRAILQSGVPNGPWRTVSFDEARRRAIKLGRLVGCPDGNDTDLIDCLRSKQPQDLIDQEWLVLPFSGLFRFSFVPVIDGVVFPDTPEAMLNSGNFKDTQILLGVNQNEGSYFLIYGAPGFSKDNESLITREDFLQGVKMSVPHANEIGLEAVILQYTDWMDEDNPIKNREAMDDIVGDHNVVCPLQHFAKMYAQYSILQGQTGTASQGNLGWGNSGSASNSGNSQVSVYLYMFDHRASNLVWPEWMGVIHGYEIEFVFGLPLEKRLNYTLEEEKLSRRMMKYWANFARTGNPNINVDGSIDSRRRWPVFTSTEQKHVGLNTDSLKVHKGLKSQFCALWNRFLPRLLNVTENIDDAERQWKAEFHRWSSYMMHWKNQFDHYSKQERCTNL
T3 sequence (P31389 whole entry): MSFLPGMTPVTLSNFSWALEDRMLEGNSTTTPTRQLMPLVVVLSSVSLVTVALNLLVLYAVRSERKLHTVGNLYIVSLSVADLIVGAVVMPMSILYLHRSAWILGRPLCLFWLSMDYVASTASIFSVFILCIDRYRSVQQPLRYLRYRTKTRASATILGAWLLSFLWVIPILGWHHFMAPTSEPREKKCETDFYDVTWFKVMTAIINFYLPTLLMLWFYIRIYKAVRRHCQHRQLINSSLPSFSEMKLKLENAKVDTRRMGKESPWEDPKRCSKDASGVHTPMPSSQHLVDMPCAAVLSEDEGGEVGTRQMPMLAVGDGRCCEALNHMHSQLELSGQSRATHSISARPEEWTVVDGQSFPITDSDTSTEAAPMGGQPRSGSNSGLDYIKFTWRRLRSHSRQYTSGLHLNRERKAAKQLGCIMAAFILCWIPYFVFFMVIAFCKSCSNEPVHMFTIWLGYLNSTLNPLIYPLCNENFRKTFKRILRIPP
T2 sequence (Q9JI35 whole entry): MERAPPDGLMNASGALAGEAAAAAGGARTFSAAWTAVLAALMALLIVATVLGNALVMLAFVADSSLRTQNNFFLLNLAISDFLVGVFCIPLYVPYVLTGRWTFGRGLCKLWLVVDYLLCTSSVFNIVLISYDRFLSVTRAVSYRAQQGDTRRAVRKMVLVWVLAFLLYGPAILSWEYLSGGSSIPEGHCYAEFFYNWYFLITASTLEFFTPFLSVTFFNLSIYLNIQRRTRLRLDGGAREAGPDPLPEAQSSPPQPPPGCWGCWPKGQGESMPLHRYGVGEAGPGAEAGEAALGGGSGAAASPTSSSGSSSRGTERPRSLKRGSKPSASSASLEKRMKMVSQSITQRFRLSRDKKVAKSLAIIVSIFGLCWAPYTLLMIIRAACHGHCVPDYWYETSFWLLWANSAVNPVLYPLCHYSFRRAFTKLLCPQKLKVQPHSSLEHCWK
Chain of eqBuChE (P81908 whole entry): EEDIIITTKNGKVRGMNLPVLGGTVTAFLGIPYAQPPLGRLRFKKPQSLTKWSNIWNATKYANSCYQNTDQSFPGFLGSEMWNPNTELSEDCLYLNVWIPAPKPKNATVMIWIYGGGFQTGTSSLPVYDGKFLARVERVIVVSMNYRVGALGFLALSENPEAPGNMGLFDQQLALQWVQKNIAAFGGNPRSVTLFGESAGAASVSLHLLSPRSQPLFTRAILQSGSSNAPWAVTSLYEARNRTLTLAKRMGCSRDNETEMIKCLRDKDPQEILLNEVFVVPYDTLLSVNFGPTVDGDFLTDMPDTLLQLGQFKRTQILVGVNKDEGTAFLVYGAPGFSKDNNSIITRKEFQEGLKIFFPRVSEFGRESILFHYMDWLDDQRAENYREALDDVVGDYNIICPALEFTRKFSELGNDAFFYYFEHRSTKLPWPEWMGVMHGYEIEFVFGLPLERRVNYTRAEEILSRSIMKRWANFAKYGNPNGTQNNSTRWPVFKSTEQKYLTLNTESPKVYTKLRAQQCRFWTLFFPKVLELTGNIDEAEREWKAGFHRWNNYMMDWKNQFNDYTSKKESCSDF

Compound	Ki (hH3R; [1]) [µM]	gpH3R pA2 ± sem (gpH3R; isolated guinea pig ileum, vs RAMH, 20 min)	Kb (gpH1R) [µM]	Kb (gpH3R) [µM]	inhibition at 10 µM (eeAChE) [%]	inhibition at 10 µM (eqBuChE) [%]	IC50 (eqBuChE) [µM]	Ki (hH3R; [2]) [µM]	IC50 (eeAChE; eeAChE IC50 ± sem) [µM]	Kb (gpH3R; [3]) [µM]	Ki (hH3R; hH3R Ki) [µM]	Kd (hH3R; radioligand used at 2 nM) [µM]
N=C(N)N(CCCCN1CCN(CCCCCCCOc2ccccc2)CC1)Cc1ccc(C(F)(F)F)cc1 [ADS1020]	0.437	8.49 ± 0.05	0.871									
N=C(N)N(CCCCN1CCN(CCCOCCCc2ccc(Cl)cc2)CC1)Cc1ccccc1 [ADS10278]	0.324		0.117	0.0148	44 ± 0.9	76.6 ± 1.3	2 ± 0.1					
N=C(N)N(CCCCN1CCN(CCCOCCCc2ccc(Cl)cc2)CC1)Cc1ccc(C(F)(F)F)cc1 [ADS10279]			0.135	0.00525	47.4 ± 1.2	67.5 ± 0.5	4.8 ± 0.1	1.07				
N=C(N)N(CCCc1ccc(Cl)cc1)CCCN1CCCCC1 [ADS10292]			1.2	0.0457	50.6 ± 0.8	54.3 ± 4.7	8.4 ± 0.2	2.69	10.9			
N=C(NCCCc1ccc(Cl)cc1)NCCCN1CCCCC1 [ADS10298]			0.132		39.8 ± 2.6	20.3 ± 0.8		0.537		0.0417		
N=C(N)N(CCCCN1CCCCC1)CCCc1ccc(Cl)cc1 [ADS10300]			2.51	0.0479	40.7 ± 1.8	75.2 ± 0.4	2.4 ± 0.1	0.603				
N=C(NCCCCN1CCCCC1)NCCCc1ccc(Cl)cc1 [ADS10301]			0.347	0.0229	11.3 ± 0.4	60.4 ± 0.7	5.9 ± 0.1	0.191			< 0.2	
N=C(NCCCCc1ccc(Cl)cc1)NCCCN1CCCCC1 [ADS10306]			0.0676	0.0479	17.8 ± 0.7	89.4 ± 0.1	1.6	0.195			< 0.2	
N=C(N)N(CCCCc1ccc(Cl)cc1)CCCN1CCCCC1 [ADS10312]			1.38	0.0933	22.2 ± 3.9	72.6 ± 5.2	3.5 ± 0.1	0.525				
N=C(N)N(CCCCN1CCN(CCCOCCCc2ccccc2)CC1)Cc1ccccc1 [ADS10349]	2.51		0.347	0.0457	6.4 ± 1.3	32.4 ± 4.2						
N=C(N)N(CCCCN1CCN(CCCOCCCc2ccccc2)CC1)Cc1ccc(C(F)(F)F)cc1 [ADS10350]			0.269		1 ± 0.2	28.3 ± 3.2		2.69		0.0288		
N=C(N)N(CCCCN1CCN(CCCCCCCOc2ccc(Cl)cc2)CC1)Cc1ccc(C(F)(F)F)cc1 [ADS10376]			0.214	0.00708	27.8 ± 5.1	71.4 ± 0.6	4.9 ± 0.2	0.398				
N=C(N)N(CCCCN1CCN(CCCCCCCOc2ccc(Cl)cc2)CC1)Cc1ccccc1 [ADS10377]			0.123	0.0151	34.3 ± 2.6	84.6 ± 1.5	1.9 ± 0.1	0.282				
S=C(NC1CCCCC1)N1CCC(c2cnc[nH]2)CC1 [Thioperamide, reference compound]										0.00155		
CNCCc1cnc[nH]1 [[3H]Nα-methylhistamine, reference compound]												0.00308
